What follows are compounds tested against human A2A receptor (A2AR) (Homo sapiens (Human), UniProt P29274) (assay: Luciferase reporter assay (HEK293-A2AR-luc2p/CRE/Hygro cells)). Settings: 3 nM CGS21680, 5 h incubation.
Assay type: cell-based
Procedure, shortened: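 Antagonism was scored as inhibition of CRE-luciferase signal driven by 3 nM CGS21680 (=100%) during a 5 h treatment with compound at 0.1–10000 nM. The line was HEK293 stably carrying human A2AR and luc2P/CRE, preincubated 18 h in 1% FBS containing 1 U/mL ADA. IC50 came from the dose-response curve.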

Sequence of human A2A receptor (A2AR) (P29274 whole entry): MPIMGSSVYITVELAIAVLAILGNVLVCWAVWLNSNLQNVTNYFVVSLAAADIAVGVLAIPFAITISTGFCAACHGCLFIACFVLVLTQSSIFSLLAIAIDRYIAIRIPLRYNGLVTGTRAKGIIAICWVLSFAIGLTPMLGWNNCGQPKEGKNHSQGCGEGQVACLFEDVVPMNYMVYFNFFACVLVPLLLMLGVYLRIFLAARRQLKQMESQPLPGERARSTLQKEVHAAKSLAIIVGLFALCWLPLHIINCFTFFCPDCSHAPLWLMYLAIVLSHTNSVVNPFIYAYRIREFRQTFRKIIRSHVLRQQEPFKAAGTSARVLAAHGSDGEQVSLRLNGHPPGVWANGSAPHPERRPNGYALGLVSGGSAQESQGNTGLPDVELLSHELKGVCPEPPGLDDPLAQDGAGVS

`Nc1nc2c(cnn2C2(C(=O)NCC3(O)COC3)CCCc3ccccc32)c2nc(-c3ccco3)nn12` (stereo not drawn) [Example 93, 1-(5-amino-2-(furan-2-yl)-7H-pyrazolo[4,3-e][1,2,4]triazolo[1,5-c]pyrimidin-7-yl)-N-((3-hydroxyoxetan-3-yl)methyl)-1,2,3,4-tetrahydronaphthalene-1-carboxamide] and `CC(C(=O)NCC1(O)CCC1)(c1ccccc1)n1ncc2c1nc(N)n1nc(-c3ccco3)nc21` (stereo not drawn) [Example 71, 2-(5-amino-2-(furan-2-yl)-7H-pyrazolo[4,3-e][1,2,4]triazolo[1,5-c]pyrimidin-7-yl)-N-((1-hydroxycyclobutyl)methyl)-2-phenylpropanamide] are the same in IC50: 3.8 nM for the first, 3.8 nM for the second.

First: CC(C(=O)N[C@H]1CC[C@@](C)(O)CC1)(c1ccccc1)n1ncc2c1nc(N)n1nc(-c3ccco3)nc21 (stereo partly drawn) [Example 33, 2-(5-amino-2-(furan-2-yl)-7H-pyrazolo[4,3-e][1,2,4]triazolo[1,5-c]pyrimidin-7-yl)-(trans)-N-(4-hydroxy-4-methylcyclohexyl)-2-phenylpropanamide]
Second: CC(C(=O)NC1CCC(O)C1)(c1ccccc1)n1ncc2c1nc(N)n1nc(-c3ccco3)nc21 (stereo not drawn) [Example 36, 2-(5-amino-2-(furan-2-yl)-7H-pyrazolo[4,3-e][1,2,4]triazolo[1,5-c]pyrimidin-7-yl)-N-(3-hydroxycyclopentyl)-2-phenylpropanamide]
The IC50 of the first is 1.5-fold lower: 8.4 nM for the first, 12.9 nM for the second.

First: CC(C(=O)NCc1ncccc1F)(c1ccccc1)n1ncc2c1nc(N)n1nc(-c3ccco3)nc21 (stereo not drawn) [Example 119, 2-(5-amino-2-(furan-2-yl)-7H-pyrazolo[4,3-e][1,2,4]triazolo[1,5-c]pyrimidin-7-yl)-N-((3-fluoropyridin-2-yl)methyl)-2-phenylpropanamide]
Second: C[C@](C(=O)NCc1ccc(C(F)(F)F)cn1)(c1ccccc1)n1ncc2c1nc(N)n1nc(-c3ccco3)nc21 [Example 142B, (R)-2-(5-amino-2-(furan-2-yl)-7H-pyrazolo[4,3-e][1,2,4]triazolo[1,5-c]pyrimidin-7-yl)-2-phenyl-N-((5-(trifluoromethyl)pyridin-2-yl)methyl)propanamide]
The IC50 of the first is 3.2-fold higher: 3.2 nM for the first, 1 nM for the second. The second is the more potent here.

First: C[C@](C(=O)NC1CC[S+]([O-])CC1)(c1ccccc1)n1ncc2c1nc(N)n1nc(-c3ccco3)nc21 (single isomer, unassigned) [Example 146B-2]
Second: CC(C(=O)N[C@@H]1CC[C@H](O)C1)(c1ccccc1)n1ncc2c1nc(N)n1nc(-c3ccco3)nc21 (stereo partly drawn) [Example 135, 2-(5-amino-2-(furan-2-yl)-7H-pyrazolo[4,3-e][1,2,4]triazolo[1,5-c]pyrimidin-7-yl)-N-((1R,3S)-3-hydroxycyclopentyl)-2-phenylpropanamide]
The IC50 of the first is 3.9-fold higher: 43.9 nM for the first, 11.2 nM for the second.

Going from `CC(C(=O)N[C@H]1CCCOC1)(c1ccccc1)n1ncc2c1nc(N)n1nc(-c3ccco3)nc21` (stereo partly drawn) [Example 59, 2-(5-amino-2-(furan-2-yl)-7H-pyrazolo[4,3-e][1,2,4]triazolo[1,5-c]pyrimidin-7-yl)-2-phenyl-N—((S)-tetrahydro-2H-pyran-3-yl)propanamide] to `CC(C(=O)Nc1cccnc1)(c1ccccc1)n1ncc2c1nc(N)n1nc(-c3ccco3)nc21` (stereo not drawn) [Example 64, 2-(5-amino-2-(furan-2-yl)-7H-pyrazolo[4,3-e][1,2,4]triazolo[1,5-c]pyrimidin-7-yl)-2-phenyl-N-(pyridin-3-yl)propanamide], the IC50 rises from 11.1 nM to 35.1 nM (3.2-fold). The first is the more potent here.

Compared with `Nc1nc2c(cnn2C(C(=O)NCc2ccc(F)cc2)c2ccccc2)c2nc(-c3ccco3)nn12` (stereo not drawn) [Example 26, 2-(5-amino-2-(furan-2-yl)-7H-pyrazolo[4,3-e][1,2,4]triazolo[1,5-c]pyrimidin-7-yl)-N-(4-fluorobenzyl)-2-phenylacetamide], `CCNC(=O)C(c1ccccc1)n1ncc2c1nc(N)n1nc(-c3ccco3)nc21` (stereo not drawn) [Example 5, 2-(5-amino-2-(furan-2-yl)-7H-pyrazolo[4,3-e][1,2,4]triazolo[1,5-c]pyrimidin-7-yl)-N-ethyl-2-phenylacetamide] is 2.7-fold higher in IC50: 2.6 nM for the first, 7 nM for the second.

From patent publication US11472811B2, “Pyrazolotriazolopyrimidine derivatives as A2A receptor antagonist” (BEIGENE, LTD., priority 2018, dated 2022)
